Experimental findings from ChEMBL document CHEMBL1201862, “PubChem BioAssay data set” (2004) are described below.

Common to all, as to experiment: DTP human tumour cell line panel, 48 h
The subject of assay [1] is DLD-1.
The subject of assay [2] is M19-MEL.
Assay [3] deals with SNB-78.
The test system of assay [4] is XF498.
Assay [5] deals with DMS-273.
Assay [6] has as its system HOP-18.
The test system of assay [7] is DMS-114.
For assay [8], the system named is KM-20L2.

Molecules are shown by their SMILES.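 How tested: cells in 96-well plates exposed to compound for 48 hours at five concentrations. GI50 is the concentration that inhibits growth by half.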 Active and inactive are the calls of the source. Cut-off read from the data, not from the text of the source: active = GI50 up to about 1.1 µM and inactive = higher.

On to `COc1cc(/C=C2\C(=O)N(C(=O)Cc3ccccc3)N=C2C)ccc1O`, for which the GI50 in assay [1], in assay [2], in assay [3], in assay [4], in assay [5] and in assay [6] was > 100 µM (inactive) each time. The GI50 (usually the concentration that inhibits growth by half) in assay [7] was > 100 µM (inactive).

In the case of `NC(=S)N/N=C/c1nccc2ccccc12`, the GI50 was 1.12 µM (active) in assay [1]; 0.375 µM (active) in assay [8]; 0.918 µM (active) in assay [2]; 0.272 µM (active) in assay [5]; 1.21 µM (inactive) in assay [6]; 0.361 µM (active) in assay [7].

For `Cc1ccc(Cn2c(C)nc3c2C(=O)c2ccccc2C3=O)cc1`, the GI50 in assay [1] was 1.22 µM (inactive); in assay [8], 5.21 µM (inactive); in assay [2], 7.05 µM (inactive); in assay [3], 20.3 µM (inactive); in assay [4], 15.1 µM (inactive); in assay [5], 1.07 µM (active).

As for `COc1ccc(/C(=N\NC(=O)C(N)=O)C(c2ccc(OC)cc2)C2(O)C(=O)Nc3c(Cl)cccc32)cc1` (configuration not stated), the GI50 in assay [1], in assay [8], in assay [2], in assay [3], in assay [4] and in assay [6] was > 100 µM (inactive) in each case. Besides, the GI50 in assay [7] was > 100 µM (inactive).

For `CC1=Nc2ccccc2SC(c2c(Cl)cccc2Cl)C1` (configuration not stated), the GI50 is 0.331 µM (active) in assay [1]; 1.59 µM (inactive) in assay [8]; 1.16 µM (inactive) in assay [2]; 3.31 µM (inactive) in assay [3]; 1.8 µM (inactive) in assay [4]; 0.792 µM (active) in assay [5]. Besides, the GI50 in assay [6] is 3.51 µM (inactive); in assay [7] it was 1.52 µM (inactive).

On to `COc1cc(Nc2nc3ccccc3nc2-c2cccs2)cc(OC)c1OC`, for which the GI50 is 23.7 µM (inactive) in assay [1]; 36.1 µM (inactive) in assay [8]; 40.5 µM (inactive) in assay [2]; 90.6 µM (inactive) in assay [3]; 19.2 µM (inactive) in assay [4]; 29.2 µM (inactive) in assay [5]. For the same molecule, the GI50 in assay [6] was > 100 µM (inactive).

Consider `O=C1C(C2=[N+]([O-])c3ccccc3C2=O)=[N+]([O-])c2ccccc21`, for which the GI50 in assay [1] is 23.9 µM (inactive); in assay [2] it was 24.3 µM (inactive); in assay [3] it was 38.3 µM (inactive); in assay [5] it was 30.9 µM (inactive); in assay [6], 20.2 µM (inactive); in assay [7], 17.9 µM (inactive).

With `Cc1cc(O)nc(NNC(C#N)c2ccco2)n1` (configuration not stated), the GI50 in assay [1], in assay [8], in assay [2], in assay [3], in assay [5] and in assay [6] was > 100 µM (inactive) in each case. In addition, the GI50 in assay [7] is > 100 µM (inactive).

On to `CC(C)N(C(=O)C12CC3CC(CC(C3)C1)C2)C(C)C`, for which the GI50 in assay [1], in assay [8], in assay [2], in assay [3], in assay [5] and in assay [6] was > 50 µM (inactive) each time. The GI50 in assay [7] was > 50 µM (inactive).

Regarding `C/C(=C(/C)c1cc[n+](C)cc1)c1cc[n+](C)cc1`, the GI50 was 39.9 µM (inactive) in assay [1]; > 75 µM (inactive) in assay [8]; > 75 µM (inactive) in assay [3]; 36.1 µM (inactive) in assay [5]; > 75 µM (inactive) in assay [6]; 16.2 µM (inactive) in assay [7].

On to `O=C(O)CCCc1cc2c(s1)-c1cccc3cccc-2c13`, for which the GI50 is 39 µM (inactive) in assay [1]; 52.2 µM (inactive) in assay [8]; 27.6 µM (inactive) in assay [3]; 36.6 µM (inactive) in assay [4]; 37.8 µM (inactive) in assay [5].
